Results from PMC6273012, “New Iridoid Glucosides from Caryopteris incana (Thunb.) Miq. and Their α-Glucosidase Inhibitory Activities” (Molecules, 2016).
Entries after “also recorded” stand apart in the source; their conditions may differ.

Biological target: α-glucosidase from Saccharomyces cerevisiae (Saccharomyces cerevisiae, UniProt P53341)
Experiment: α-glucosidase inhibition assay (pNPG substrate)
Type: biochemical
Settings: yeast α-glucosidase; acarbose as positive control
Procedure: The α-glucosidase inhibition assay was performed according to a slightly modified, previously reported method; α-Glucosidase (0.1 U/mL) was dissolved in potassium phosphate buffer (pH 6.8) as the enzyme solution. The tested compounds (50 μL, 5 mM) dissolved in potassium phosphate buffer containing 3% DMSO were mixed with 50 μL of enzyme solution. After incubation at 37 °C for 10 min, a p-nitrophenyl-α-glucopyranoside (pNPG) solution (100 μL) (5.0 mM pNPG in 0.1 M potassium phosphate buffer (pH 6.8)) was added. The enzymatic reaction proceeded at 37 °C for 20 min and was terminated by the addition of 100 μL of 0.2 M Na2CO3. 4-nitrophenol absorption was immediately measured at 405 nm by using a microplate reader. The experiments were performed in triplicate.

α-glucosidase from Saccharomyces cerevisiae, sequence (P53341 whole entry): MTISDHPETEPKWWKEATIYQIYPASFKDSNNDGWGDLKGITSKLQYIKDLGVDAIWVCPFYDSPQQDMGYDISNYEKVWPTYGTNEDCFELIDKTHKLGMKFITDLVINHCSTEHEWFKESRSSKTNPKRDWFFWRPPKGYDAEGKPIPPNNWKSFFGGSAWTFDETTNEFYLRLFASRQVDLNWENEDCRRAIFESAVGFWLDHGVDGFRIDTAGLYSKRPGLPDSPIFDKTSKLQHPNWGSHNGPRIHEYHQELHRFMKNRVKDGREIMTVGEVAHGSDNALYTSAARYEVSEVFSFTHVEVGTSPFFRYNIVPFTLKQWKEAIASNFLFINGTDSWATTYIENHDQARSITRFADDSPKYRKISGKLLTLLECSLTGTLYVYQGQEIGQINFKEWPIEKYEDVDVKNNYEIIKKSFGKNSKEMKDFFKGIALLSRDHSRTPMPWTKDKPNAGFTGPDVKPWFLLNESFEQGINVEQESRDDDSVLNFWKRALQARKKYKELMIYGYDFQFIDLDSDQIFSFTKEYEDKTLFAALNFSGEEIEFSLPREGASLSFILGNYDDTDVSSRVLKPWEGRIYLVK

SMILES	α-glucosidase inhibitory effect (in words)
CC(=O)O[C@@]1(C)C[C@@H](OC(=O)C2=CO[C@@H](O[C@@H]3O[C@H](CO)[C@@H](O)[C@H](O)[C@H]3OC(=O)/C=C\c3ccc(O)cc3)[C@@H]3[C@H](C)CC[C@H]23)[C@@H]2C=CO[C@@H](O[C@@H]3O[C@H](CO)[C@@H](O)[C@H](O)[C@H]3O)[C@@H]21 [Compound 4, 2′′′-O-(Z)-p-coumaroyl caryocanoside B]	stronger inhibitory effects against α-glucosidase than the positive control; also recorded: potent effect
CC(CO)c1cc2c(c(O)c1O[C@@H]1O[C@H](CO)[C@@H](O)[C@H](O)[C@H]1O)[C@@]1(C)CCC[C@](C)(CO[C@@H]3O[C@H](CO)[C@@H](O)[C@H](O)[C@H]3O)[C@@H]1CC2 (some centres unmarked) [Compound 10, ajugaside A]	stronger inhibitory effects against α-glucosidase than the positive control
